Laboratory results reported in patent publication US9174980B2, “Heterocyclic compounds as inhibitors of leukotriene production” (Boehringer Ingelheim International GmbH, priority 2012, dated 2015).

How the values were obtained:
[1] = biological target: T1, recombinant human FLAP protein (Homo sapiens, UniProt P20292); assay: FLAP binding assay (Scintillation Proximity Assay, displacement of [125I]L-691,831); conditions: read-out: Human FLAP SPA Binding (IC50 nM)
T1 construct: made in house; host or cells: Sf9 insect cells (membrane fraction, 100,000 x g pellet)
T1 sequence (P20292 1-161): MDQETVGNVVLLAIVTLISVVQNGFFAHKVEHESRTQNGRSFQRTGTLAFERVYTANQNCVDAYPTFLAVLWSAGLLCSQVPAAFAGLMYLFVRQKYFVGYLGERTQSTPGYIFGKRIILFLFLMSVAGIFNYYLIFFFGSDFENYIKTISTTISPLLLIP
Experimental: Compounds are assessed for the ability to bind to FLAP in a binding assay that measures compound-specific displacement of an iodinated (^125I) FLAP inhibitor via a Scintillation Proximity Assay format (adapted from S. Charleson et al., Mol. Pharmacol., 1992, 41, 873-879).
Cell pellets produced from sf9 insect cells expressing recombinant human FLAP protein are resuspended in buffer A [15 mM Tris-HCl (pH 7.5), 2 mM MgCl2, 0.3 mM EDTA, 1 mM PMSF]. The cells are lysed with a Dounce homogenizer and the material is centrifuged at 10,000×g for 10 minutes. The supernatant is then collected and centrifuged at 100,000×g for 60 minutes. To prepare membrane protein for an assay, an aliquot of the 100,000×g pellet is resuspended in 1 ml of buffer A, Dounce homogenized, and finally subjected to polytron mixing (30 seconds). Membrane protein (25 μl, 5 μg) is mixed with WGA SPA beads (Amersham) and stirred for 1 h. To an assay plate (Perkin Elmer FlexiPlate) is added 25 μl of test compound prepared in Binding buffer [100 mM Tris (pH 7.5), 140 mM NaCl, 5% glycerol, 2 mM EDTA, 0.5 mM TCEP, 0.05% Tween 20], 25 μl of [^125I]L-691,831 (an iodinated analog of MK-591, Charleson et al. Mol. Pharmacol., 41, 873-879, 1992) and finally 50 μl of the bead/protein mixture. (final concentrations: beads, 200 μg/well; protein, 5 μg/well; [^125I] probe, 0.08 nM/well (17 nCi/well). The plates are shaken for 2 h before reading on a Microbeta plate reader. Non-specific binding is determined by the addition of 10 μM cold L-691,831 compound.

[2] = system: synthesis of LTB4 in human whole blood; assay: Human whole blood assay (calcimycin-stimulated LTB4 synthesis); assay type: cell-based; conditions: Homo sapiens; read-out: Human Whole Blood LTB4 Assay for FLAP (IC50 nM)
Experimental: Compounds are additionally tested in a human whole blood assay to determine their ability to inhibit the synthesis of LTB4 in a cellular system. Compounds are combined with heparinized human whole blood and incubated for 15 minutes at 37° C. Calcimycin (20 μM final, prepared in phosphate-buffered saline, pH 7.4) is then added and the mixture is incubated for another 30 minutes at 37° C. The samples are centrifuged for 5 min at low speed (1500×g) and the plasma layer is removed. Plasma LTB4 concentrations are then measured using an antibody-based homogenous time-resolved fluorescence method (CisBio, Bedford, Mass.).

| SMILES | IC50 [1] | IC50 [2] |
| --- | --- | --- |
| CC(C)C(C)(c1ccc(-c2cnc(N)nc2)cc1)c1cn(Cc2ccc(Cl)cc2)c2ccccc12 (stereo not shown) [Example 29, 5-(4-{2-[1-(4-chlorobenzyl)-1H-indol-3-yl]-3-methylbutan-2-yl}phenyl)pyrimidin-2-amine] | 5.1 nM | 2700 nM |
| CN(C)CCn1cc(-c2cc([C@](C)(c3ccc(-c4cnc(N)nc4)cc3)C3CC3)no2)cn1 [Example 30, 5-{4-[(1S)-1-cyclopropyl-1-(5-{1-[2-(dimethylamino)ethyl]-1H-pyrazol-4-yl}-1,2-oxazol-3-yl)ethyl]phenyl}pyrimidin-2-amine] | 330 nM | 1200 nM |
| CC(C)C(C)(c1ccc(-c2cnc(N)nc2)cc1)c1cn(C)c2ccc(F)cc12 (stereo not shown) [Example 31, 5-{4-[2-(5-fluoro-1-methyl-1H-indol-3-yl)-3-methylbutan-2-yl]phenyl}pyrimidin-2-amine] | 7.1 nM | 1200 nM |
| Nc1ncc(-c2ccc(C3(c4c[nH]c5ccccc45)CCOCC3)cc2)cn1 [Example 33, 5-{4-[4-(1H-indol-3-yl)tetrahydro-2H-pyran-4-yl]phenyl}pyrimidin-2-amine] | 290 nM | > 5000 nM |
| CC(C)C(C)(c1ccc(-c2cnc(N)nc2)cc1)c1cn(Cc2ccc(Cl)cc2)c2ncccc12 (stereo not shown) [Example 34, 5-(4-{2-[1-(4-chlorobenzyl)-1H-pyrrolo[2,3-b]pyridin-3-yl]-3-methylbutan-2-yl}phenyl)pyrimidin-2-amine] | 3.4 nM | 460 nM |
| Nc1ncc(-c2ccc(C3(c4cn(Cc5ccccn5)c5ccccc45)CCOCC3)cc2)cn1 [Example 35, 5-(4-{4-[1-(pyridin-2-ylmethyl)-1H-indol-3-yl]tetrahydro-2H-pyran-4-yl}phenyl)pyrimidin-2-amine] | 150 nM | > 5000 nM |
| CC(C)C(C)(c1ccc(-c2cnc(N)nc2)cc1)c1cn(C)c2ncccc12 (stereo not shown) [Example 39, 5-{4-[3-methyl-2-(1-methyl-1H-pyrrolo[2,3-b]pyridin-3-yl)butan-2-yl]phenyl}pyrimidin-2-amine] | 3.3 nM | 290 nM |
| CC(C)C(C)(c1ccc(-c2cnc(N)nc2)cc1)c1cn(Cc2ccccn2)c2cccc(F)c12 (stereo not shown) [Example 40, 5-(4-{2-[4-fluoro-1-(pyridin-2-ylmethyl)-1H-indol-3-yl]-3-methylbutan-2-yl}phenyl)pyrimidin-2-amine] | 2.6 nM | 540 nM |

Now from value to molecule:

| IC50 [1] | IC50 [2] | SMILES |
| --- | --- | --- |
| 3.3 nM | 610 nM | CC(C)C(C)(c1ccc(-c2cnc(N)nc2)cc1)c1cn(Cc2ccccn2)c2ccccc12 (stereo not shown) [Example 28, 5-(4-{3-methyl-2-[1-(pyridin-2-ylmethyl)-1H-indol-3-yl]butan-2-yl}phenyl)pyrimidin-2-amine] |
| 3.3 nM | 650 nM | CC(C)C(C)(c1ccc(-c2cnc(N)nc2)cc1)c1cn(C)c2ccccc12 (stereo not shown) [Example 32, 5-{4-[3-methyl-2-(1-methyl-1H-indol-3-yl)butan-2-yl]phenyl}pyrimidin-2-amine] |
| 1.8 nM | 1900 nM | CC(C)C(C)(c1ccc(OCc2ccccn2)cc1)c1cn(C)c2cc(C(=O)O)ccc12 (stereo not shown) [Example 36, 23-[1,2-dimethyl-1-[4-(2-pyridylmethoxy)phenyl]propyl]-1-methyl-indole-6-carboxylic acid] |
| 1.4 nM | 150 nM | CC(C)C(C)(c1ccc(OCc2ccccn2)cc1)c1cn(C)c2cc(C(=O)Nc3cccnn3)ccc12 (stereo not shown) [Example 37, 3-[1,2-dimethyl-1-[4-(2-pyridylmethoxy)phenyl]propyl]-1-methyl-N-pyridazin-3-yl-indole-6-carboxamide] |
| 1.4 nM | 240 nM | CC(C)C(C)(c1ccc(OCc2ccccn2)cc1)c1cn(C)c2cc(C(N)=O)ccc12 (stereo not shown) [Example 38, 3-[1,2-dimethyl-1-[4-(2-pyridylmethoxy)phenyl]propyl]-1-methyl-indole-6-carboxamide] |
| 3.4 nM | 1300 nM | CC(C)C(C)(c1ccc(-c2cnc(N)nc2)cc1)c1cn(Cc2ccccn2)c2c(F)cccc12 (stereo not shown) [Example 41, 5-(4-{2-[7-fluoro-1-(pyridin-2-ylmethyl)-1H-indol-3-yl]-3-methylbutan-2-yl}phenyl)pyrimidin-2-amine] |
